In the NIST ThermoML archive (doi:10.1016/j.jct.2008.10.002):

Columns and labels:
[1] = excess molar enthalpy (molar enthalpy of mixing); xn = mol fraction of the nth substance listed; conditions: 303.15 K, 101.3 kPa, Liquid
[2] = xn = mol fraction of the nth substance listed; conditions: 101.3 kPa, Liquid, Vibrating tube method
[3] = molar heat capacity at constant pressure; xn = mol fraction of the nth substance listed; conditions: 101.3 kPa, Liquid, Small sample (50 mg) DSC

CCCCn1cc[n+](C)c1.O=S(=O)([O-])C(F)(F)F [1-butyl-3-methylimidazolium trifluoromethanesulfonate] + O
[1]
Conditions | excess molar enthalpy [kcal/mol]
x1 = 0.1007 | 0.157
x1 = 0.1989 | 0.257
x1 = 0.2954 | 0.312
x1 = 0.3944 | 0.332
x1 = 0.4985 | 0.317
x1 = 0.5757 | 0.293
x1 = 0.6624 | 0.245
x1 = 0.8201 | 0.136

Conditions | mass density, [2] [kg/m3] | molar heat capacity at constant pressure, [3] [J/K/mol]
293.15 K, x1 = 0.0496 | 1119.8 | 98.5
293.15 K, x1 = 0.1012 | 1176.7 | –
293.15 K, x1 = 0.1415 | 1202.8 | 131.9
293.15 K, x1 = 0.197 | 1227.4 | –
293.15 K, x1 = 0.2965 | 1252.5 | –
293.15 K, x1 = 0.3369 | 1259.7 | 200.1
293.15 K, x1 = 0.3873 | 1266.8 | –
293.15 K, x1 = 0.4868 | 1277.3 | 250
293.15 K, x1 = 0.5637 | 1283.2 | 274.4
293.15 K, x1 = 0.6636 | 1289.1 | 307.4
293.15 K, x1 = 0.7124 | 1291.6 | 322.5
293.15 K, x1 = 0.796 | 1295.2 | 350.7
293.15 K, x1 = 0.9017 | 1298.8 | 387.2
293.15 K, x1 = 0.9456 | 1300.1 | –
298.15 K, x1 = 0.0496 | 1116.9 | 98.7
298.15 K, x1 = 0.1012 | 1173.2 | –
298.15 K, x1 = 0.1415 | 1199 | 132.6
298.15 K, x1 = 0.197 | 1223.4 | –
298.15 K, x1 = 0.2965 | 1248.4 | –
298.15 K, x1 = 0.3369 | 1255.6 | 201.3
298.15 K, x1 = 0.3873 | 1262.7 | –
298.15 K, x1 = 0.4868 | 1273.2 | 251.5
298.15 K, x1 = 0.5637 | 1279.1 | 276.1
298.15 K, x1 = 0.6636 | 1285.1 | 309.4
298.15 K, x1 = 0.7124 | 1287.6 | 324.4
298.15 K, x1 = 0.796 | 1291.2 | 352.9
298.15 K, x1 = 0.9017 | 1294.8 | 389.4
298.15 K, x1 = 0.9456 | 1296.1 | –
303.15 K, x1 = 0.0496 | 1113.8 | 98.9
303.15 K, x1 = 0.1012 | 1169.5 | –
303.15 K, x1 = 0.1415 | 1195.1 | 133.3
303.15 K, x1 = 0.197 | 1219.3 | –
303.15 K, x1 = 0.2965 | 1244.3 | –
303.15 K, x1 = 0.3369 | 1251.5 | 202.7
303.15 K, x1 = 0.3873 | 1258.6 | –
303.15 K, x1 = 0.4868 | 1269.1 | 253.2
303.15 K, x1 = 0.5637 | 1275.1 | 277.8
303.15 K, x1 = 0.6636 | 1281.1 | 311.5
303.15 K, x1 = 0.7124 | 1283.6 | 326.4
303.15 K, x1 = 0.796 | 1287.2 | 355.2
303.15 K, x1 = 0.9017 | 1290.9 | 391.8
303.15 K, x1 = 0.9456 | 1292.2 | –
308.15 K, x1 = 0.0496 | 1110.6 | 99.1
308.15 K, x1 = 0.1012 | 1165.7 | –
308.15 K, x1 = 0.1415 | 1191.2 | 134
308.15 K, x1 = 0.197 | 1215.3 | –
308.15 K, x1 = 0.2965 | 1240.2 | –
308.15 K, x1 = 0.3369 | 1247.4 | 204.1
308.15 K, x1 = 0.3873 | 1254.5 | –
308.15 K, x1 = 0.4868 | 1265.1 | 254.9
308.15 K, x1 = 0.5637 | 1271 | 279.7
308.15 K, x1 = 0.6636 | 1277.1 | 313.7
308.15 K, x1 = 0.7124 | 1279.6 | 328.5
308.15 K, x1 = 0.796 | 1283.2 | 357.6
308.15 K, x1 = 0.9017 | 1286.9 | 394.4
308.15 K, x1 = 0.9456 | 1288.2 | –
313.15 K, x1 = 0.0496 | 1107.3 | 99.4
313.15 K, x1 = 0.1012 | 1161.9 | –
313.15 K, x1 = 0.1415 | 1187.1 | 134.8
313.15 K, x1 = 0.197 | 1211.2 | –
313.15 K, x1 = 0.2965 | 1236 | –
313.15 K, x1 = 0.3369 | 1243.3 | 205.5
313.15 K, x1 = 0.3873 | 1250.4 | –
313.15 K, x1 = 0.4868 | 1261 | 256.7
313.15 K, x1 = 0.5637 | 1267 | 281.7
313.15 K, x1 = 0.6636 | 1273.1 | 316.1
313.15 K, x1 = 0.7124 | 1275.6 | 330.7
313.15 K, x1 = 0.796 | 1279.2 | 360.2
313.15 K, x1 = 0.9017 | 1283 | 397
313.15 K, x1 = 0.9456 | 1284.3 | –
318.15 K, x1 = 0.0496 | 1103.9 | 99.7
318.15 K, x1 = 0.1012 | 1158 | –
318.15 K, x1 = 0.1415 | 1183.1 | 135.7
318.15 K, x1 = 0.197 | 1207 | –
318.15 K, x1 = 0.2965 | 1231.9 | –
318.15 K, x1 = 0.3369 | 1239.1 | 207.1
318.15 K, x1 = 0.3873 | 1246.3 | –
318.15 K, x1 = 0.4868 | 1256.9 | 258.7
318.15 K, x1 = 0.5637 | 1263 | 283.7
318.15 K, x1 = 0.6636 | 1269.1 | 318.6
318.15 K, x1 = 0.7124 | 1271.6 | 333.1
318.15 K, x1 = 0.796 | 1275.3 | 362.9
318.15 K, x1 = 0.9017 | 1279 | 399.9
318.15 K, x1 = 0.9456 | 1280.3 | –
